Test results: article PMC8369945 (Hepatology Communications, 2021)
Entries after “also recorded” stand apart in the source; their conditions may differ.

Key:
[1] = molecular target: T1, PPARα (Homo sapiens, UniProt Q07869); test: PPARα coactivator recruitment
T1 sequence (Q07869 1-468): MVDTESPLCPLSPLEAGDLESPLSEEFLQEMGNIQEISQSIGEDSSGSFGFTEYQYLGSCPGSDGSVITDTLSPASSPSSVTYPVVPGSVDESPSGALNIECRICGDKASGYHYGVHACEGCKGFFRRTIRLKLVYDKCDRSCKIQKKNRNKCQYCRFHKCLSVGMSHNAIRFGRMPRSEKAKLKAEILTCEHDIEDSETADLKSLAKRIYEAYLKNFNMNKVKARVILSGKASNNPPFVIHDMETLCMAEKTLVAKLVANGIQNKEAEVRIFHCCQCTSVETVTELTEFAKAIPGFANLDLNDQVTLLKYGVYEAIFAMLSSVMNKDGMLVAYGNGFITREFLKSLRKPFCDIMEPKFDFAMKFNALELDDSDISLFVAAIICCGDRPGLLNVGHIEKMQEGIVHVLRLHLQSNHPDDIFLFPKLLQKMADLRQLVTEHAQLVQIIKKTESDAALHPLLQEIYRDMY

[2] = test system: db/db mice; test: db/db mouse model of T2DM; format: in vivo; conditions: 10 days once daily p.o., pio 30, PXL065 20, d-S-pio 20 mg/kg
[3] = molecular target: T2, PPARδ (Homo sapiens, UniProt Q03181); test: PPARδ coactivator recruitment
T2 sequence (Q03181 1-441): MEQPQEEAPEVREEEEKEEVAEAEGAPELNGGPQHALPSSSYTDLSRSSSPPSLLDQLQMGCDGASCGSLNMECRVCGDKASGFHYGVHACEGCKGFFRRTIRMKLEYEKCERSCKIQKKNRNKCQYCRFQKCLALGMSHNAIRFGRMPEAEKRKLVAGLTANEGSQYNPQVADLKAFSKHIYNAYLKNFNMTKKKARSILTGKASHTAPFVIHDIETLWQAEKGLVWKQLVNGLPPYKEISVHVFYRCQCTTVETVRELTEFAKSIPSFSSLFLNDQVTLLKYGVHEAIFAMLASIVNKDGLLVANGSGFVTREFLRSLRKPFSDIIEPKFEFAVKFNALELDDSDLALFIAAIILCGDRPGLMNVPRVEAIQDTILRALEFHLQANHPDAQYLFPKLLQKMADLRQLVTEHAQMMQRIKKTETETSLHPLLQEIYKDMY

[4] = test system: C57BL/6J male mice; test: Weight gain study in mouse; format: in vivo; conditions: normal C57BL/6J male mice, pio 30, PXL065 15, d-S-pio 15 mg/kg/day, twice daily; for body weight versus vehicle: after 10 days of dosing
[5] = test system: C57BL/6J mice on CD or MCD diet; test: Choline-deficient; format: in vivo, mouse; conditions: for markers of NASH progression: two diet models (d-S-pio only CD)
[6] = Phase 1a clinical study, pharmacokinetics in healthy subjects; conditions: human, single 22.5 mg PXL065

Structure (SMILES) | agonist activity at PPARα [1] | inflammatory markers serum amyloid A, IL-1β and IL-6 [2] | serum adiponectin [2] | serum insulin [2] | agonist activity at PPARδ [3] | body weight versus vehicle [4] | fluid retention (total body water) [4] | adiponectin ([5]; CD diet mice) | body-weight loss compared with vehicle- or PXL065-treated animals ([5]; MCD diet) | markers of NASH progression [5] | exposure to (R)-pioglitazone, higher than in the 45-mg Actos group [6] | exposure to the (S)-enantiomer, lower than in the 45-mg Actos group [6] | reduction of hepatic steatosis and triglycerides, compared with pioglitazone ([5]; CD diet mice) | hepatic fibrosis ([5]; either diet)
CCc1ccc(CCOc2ccc(CC3SC(=O)NC3=O)cc2)nc1 (centres unmarked) [pioglitazone, reference compound] | Neither pioglitazone, PXL065, nor d‐S‐pio showed binding to PPARα or agonist activity at PPARα or PPARδ | significantly decreased | significantly increased | significantly decreased | Neither pioglitazone, PXL065, nor d‐S‐pio showed binding to PPARα or agonist activity at PPARα or PPARδ | significantly increased body weight over vehicle | trend was observed for increased fluid retention; also recorded: significant increase in total body water | increase | weight loss tended to be less | significantly affected all markers of NASH progression | – | – | – | –
[2H][C@]1(Cc2ccc(OCCc3ccc(CC)cn3)cc2)SC(=O)NC1=O [PXL065, deuterated (R)‐pioglitazone] | – | significantly decreased | nonsignificant trend | – | – | did not increase body weight | – | increase | – | significantly affected all markers of NASH progression | 19% | 42% | superior to pioglitazone | –
[2H][C@@]1(Cc2ccc(OCCc3ccc(CC)cn3)cc2)SC(=O)NC1=O [d‐S‐pio, deuterated (S)‐pioglitazone] | – | no effect | significantly increased | trend toward significant reduction | – | significantly increased body weight over vehicle | trend was observed for increased fluid retention; also recorded: a trend was observed | increase | – | overall without effect | – | – | – | antifibrotic effect similar to that observed with PXL065 and pioglitazone
